# Results as given in US20230090868A1, “ANTI-CD30 ANTIBODY-DRUG CONJUGATES AND THEIR USE FOR THE TREATMENT OF NON-HODGKIN LYMPHOMA” (Seagen Inc., priority 2020, published 2023).
# Like-named read-outs stand apart in the source and are kept apart here.
# Tests used:
# [1] = Phase I trial dose-escalation phase: maximum tolerated dose (MTD) and dose-limiting toxicities; type: in vivo, human; conditions: lenalidomide in combination with BV; by mouth Days 1-21 of each 21-day cycle; rel/ref DLBCL patients
# Description: The maximum tolerated dose (MTh) was defined as the dose level immediately below the dose level at which 2 patients of a cohort (of 2 to 6 patients) experienced dose-limiting toxicity during the first cycle. Dose escalations proceeded until the MTD was reached.
# Hematologic dose limiting toxicity (DLT) was defined as any of the following that occured during the first cycle that were attributed as possibly, probably, or definitely related to the study treatment: • Grade 4 neutropenia >7 day duration • Grade 4 infection with grade 3 or 4 neutropenia (life-threatening sepsis) • Grade 4 thrombocytopenia associated with life-threatening bleeding or requiring more than 1 transfusion • Treatment delay >14 days due to hematologic toxicity
# Non-hematologic DLT was defined as any possibly, probably, or definitely related grade 3 or grade 4 non-hematologic toxicity that occured during the first cycle with the following specific exceptions: • Grade 3 or 4 nausea, vomiting, or anorexia that returns to Grade 1 prior to the start of Cycle 2 • Grade 3 metabolic abnormalities (e.g., hyperglycemia) • Grade 3 fatigue
# Dose escalations proceeded as follows after the occurrence of dose-limiting toxicity (DLT):
# Dose escalation occurred after all patients in the cohort completed the first cycle according to the following scheme: […]
# [2] = cited from earlier work
# [3] = single 25 mg dose with a high-fat meal, healthy subjects; cited from earlier work
# P-gp [4] = target: T1, P-gp (Homo sapiens, UniProt P08183); conditions: in vitro; cited from earlier work
# P-gp [5] = target: T1, P-gp; conditions: controlled studies; cited from earlier work
# R/R DLBCL = conditions: cited from earlier work
# CD30+ cell lines = conditions: in vitro; cited from earlier work
# [6] = tested on: xenograft models of Hodgkin disease; conditions: SCID mouse xenograft models of Hodgkin disease; cited from earlier work
# T1 sequence (P08183 whole entry): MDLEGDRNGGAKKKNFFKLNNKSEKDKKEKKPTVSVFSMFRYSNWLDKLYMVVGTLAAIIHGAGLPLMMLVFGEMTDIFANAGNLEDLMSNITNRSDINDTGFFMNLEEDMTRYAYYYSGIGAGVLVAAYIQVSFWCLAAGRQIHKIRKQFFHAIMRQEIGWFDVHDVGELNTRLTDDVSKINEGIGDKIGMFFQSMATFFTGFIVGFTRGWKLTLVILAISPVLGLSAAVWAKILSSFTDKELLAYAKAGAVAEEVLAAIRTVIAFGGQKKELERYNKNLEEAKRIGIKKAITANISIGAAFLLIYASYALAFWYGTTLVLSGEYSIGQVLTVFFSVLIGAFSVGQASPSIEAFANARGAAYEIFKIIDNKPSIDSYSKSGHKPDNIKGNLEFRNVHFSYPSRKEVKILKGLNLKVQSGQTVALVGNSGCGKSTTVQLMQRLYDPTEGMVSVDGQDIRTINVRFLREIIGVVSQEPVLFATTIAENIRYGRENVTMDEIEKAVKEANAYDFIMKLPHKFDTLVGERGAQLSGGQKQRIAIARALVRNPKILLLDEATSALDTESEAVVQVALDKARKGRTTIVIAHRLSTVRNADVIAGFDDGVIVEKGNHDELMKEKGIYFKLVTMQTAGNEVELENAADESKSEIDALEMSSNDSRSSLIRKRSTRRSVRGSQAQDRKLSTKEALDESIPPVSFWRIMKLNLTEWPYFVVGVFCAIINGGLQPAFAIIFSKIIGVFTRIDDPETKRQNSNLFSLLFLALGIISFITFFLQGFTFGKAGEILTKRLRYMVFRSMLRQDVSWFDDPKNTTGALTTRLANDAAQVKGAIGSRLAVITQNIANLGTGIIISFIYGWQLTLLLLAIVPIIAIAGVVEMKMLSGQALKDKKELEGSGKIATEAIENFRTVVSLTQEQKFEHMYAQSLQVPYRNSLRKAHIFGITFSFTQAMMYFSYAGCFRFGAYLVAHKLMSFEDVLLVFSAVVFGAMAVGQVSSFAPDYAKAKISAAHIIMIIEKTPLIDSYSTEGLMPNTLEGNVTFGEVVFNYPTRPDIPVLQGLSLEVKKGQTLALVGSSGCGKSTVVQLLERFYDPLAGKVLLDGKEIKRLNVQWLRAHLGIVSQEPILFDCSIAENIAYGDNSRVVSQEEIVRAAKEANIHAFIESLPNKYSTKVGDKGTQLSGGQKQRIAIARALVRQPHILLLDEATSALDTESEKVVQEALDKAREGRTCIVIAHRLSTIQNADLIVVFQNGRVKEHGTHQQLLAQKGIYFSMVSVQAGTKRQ
Compound,maximum tolerated dose (MTD) [1] [mg],drug accumulation ([2]; multiple doses at the recommended dosage),"time post-dose at which maximum plasma concentrations occurred ([2]; single and multiple doses, subjects with MM or MDS, (approximately 0.5 to 6 hours)) [h]",decrease in area under the concentration-time curve [3] [%],decrease in maximum plasma concentration (Cmax) [3] [%],substrate of P-gp (P-gp [4]),PK interactions with P-gp substrates/inhibitors (P-gp [5]),"median progression-free survival (PFS) (R/R DLBCL; GCB subjects, P=0.550) [weeks]","median progression-free survival (PFS) (R/R DLBCL; all subjects with R/R DLBCL, P=0.041) [weeks]","median progression-free survival (PFS) (R/R DLBCL; non-germinal-center B-cell-like (non-GCB) subjects, P=0.021) [weeks]",objective response rate (ORR) (R/R DLBCL; subjects with R/R DLBCL) [%],growth arrest of CD30+ cell lines (CD30+ cell lines),antitumor activity [6]
"Nc1cccc2c1CN(C1CCC(=O)NC1=O)C2=O (racemic) [lenalidomide, (RS)-3-(4-Amino-1-oxo-1,3-dihydro-2H-isoindol-2-yl)piperidine-2,6-dione]",20,does not result in drug accumulation,1,~20,~50,weak substrate,does not have clinically significant PK interactions,10.1,13.6,15.1,27.5,–,–
cAC10: chimeric IgG1 monoclonal antibody that specifically binds CD30,–,–,–,–,–,–,–,–,–,–,–,induces growth arrest,pronounced antitumor activity
